In general, inhibition refers to the drop in the measured response relative to a control, in per cent. A lower inhibition goes with a weak effect. The term melting point denotes the temperature, or range, at which the solid turns liquid.

In patent US6825185B2, “Substituted aryl compounds as novel cyclooxygenase-2 selective inhibitors, compositions and methods of use” (NitroMed, Inc., priority 2000, dated 2004) one finds inhibition and melting point data, which are given here for four compounds.

One data set has as its target T1, COX-2 (Homo sapiens, UniProt P35354).
T1 sequence (P35354 18-604): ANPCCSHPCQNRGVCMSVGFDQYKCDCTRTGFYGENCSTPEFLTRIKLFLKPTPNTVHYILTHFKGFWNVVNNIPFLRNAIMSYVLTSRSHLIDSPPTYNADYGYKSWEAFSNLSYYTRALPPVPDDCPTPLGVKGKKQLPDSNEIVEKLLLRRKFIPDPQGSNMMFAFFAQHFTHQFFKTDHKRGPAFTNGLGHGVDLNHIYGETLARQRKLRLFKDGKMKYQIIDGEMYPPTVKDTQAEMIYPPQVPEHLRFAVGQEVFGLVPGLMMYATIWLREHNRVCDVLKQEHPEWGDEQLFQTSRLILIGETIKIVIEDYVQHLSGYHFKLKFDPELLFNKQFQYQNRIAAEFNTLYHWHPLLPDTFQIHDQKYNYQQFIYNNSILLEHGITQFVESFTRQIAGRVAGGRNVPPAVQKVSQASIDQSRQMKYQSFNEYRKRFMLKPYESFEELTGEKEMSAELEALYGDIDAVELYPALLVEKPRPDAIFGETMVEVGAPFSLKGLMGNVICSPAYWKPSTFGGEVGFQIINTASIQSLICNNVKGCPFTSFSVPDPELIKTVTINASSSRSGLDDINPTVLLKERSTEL
The data set is described as follows: COX-2 enzyme activity in human whole blood (LPS induced, thromboxane B2 EIA). Type of data set: cell-based. Details: Human blood (≈50 mL) from male or female donors who had not received any aspirin or NSAIDs for 14 days; endogenous in cells; host or cells: human whole blood from donors, LPS-induced. The following applies: test compound at 10 μM.

The target in the next data set is COX-1 (Homo sapiens, UniProt P23219). Put plainly: COX-1 enzyme activity in human whole blood (A23187 stimulated, thromboxane B2 EIA). The following applies: test compound at 100 μM. Type of data set: cell-based. The arrangement: Human blood (≈50 mL) from male or female donors who had not received any aspirin or NSAIDs for 14 days; endogenous in cells; host or cells: human whole blood from donors.
COX-1, sequence (P23219 24-599): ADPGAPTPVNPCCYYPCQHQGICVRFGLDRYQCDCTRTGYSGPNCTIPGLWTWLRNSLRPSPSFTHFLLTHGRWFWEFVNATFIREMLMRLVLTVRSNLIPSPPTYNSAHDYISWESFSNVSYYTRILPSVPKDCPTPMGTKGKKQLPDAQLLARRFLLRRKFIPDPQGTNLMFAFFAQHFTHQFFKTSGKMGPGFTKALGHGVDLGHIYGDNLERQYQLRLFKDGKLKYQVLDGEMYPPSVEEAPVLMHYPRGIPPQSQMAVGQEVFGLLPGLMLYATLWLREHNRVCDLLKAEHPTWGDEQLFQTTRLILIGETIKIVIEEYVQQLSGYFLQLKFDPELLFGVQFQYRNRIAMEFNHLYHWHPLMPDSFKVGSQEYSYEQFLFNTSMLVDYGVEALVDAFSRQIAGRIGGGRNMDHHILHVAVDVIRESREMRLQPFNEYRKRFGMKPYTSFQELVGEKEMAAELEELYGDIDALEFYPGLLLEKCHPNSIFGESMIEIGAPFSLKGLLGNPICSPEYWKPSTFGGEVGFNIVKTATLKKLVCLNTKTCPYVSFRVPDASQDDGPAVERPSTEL

The compound `CS(=O)(=O)c1ccc(-c2cc3c(cc2C(=O)c2cc(F)cc(F)c2)OCCO3)cc1` [Example 22, 3,5-Difluorophenyl 7-(4-(methylsulfonyl)phenyl)(2H, 3H-benzo(e)1,4-dioxin-6-yl) ketone] came in with a melting point of 191 to 193 °C. The same compound registered an inhibition at 10 µM against COX-2 of 55%. Besides, the inhibition at 100 µM against COX-1 was found to be 90%.

Regarding `CS(=O)(=O)c1ccc(-c2ccccc2C(=O)c2cccc(F)c2)cc1` [Example 25c, 3-Fluorophenyl 2-(4-(methylsulfonyl)phenyl)phenyl ketone], the melting point was 105 to 106 °C. Further, the inhibition at 10 µM against COX-2 amounted to 40%. Further, the inhibition at 100 µM against COX-1 worked out at 40%.

Compound `CS(=O)(=O)c1ccc(-c2cc3c(cc2Cc2cc(F)cc(F)c2)OC(C(N)=O)CO3)cc1` (stereo not drawn) [Example 21, 7-((3,5-Difluorophenyl)methyl)-6-(4-(methylsulfonyl)phenyl)-2H, 3H-benzo(e)1,4-dioxin-2-carboxamide] registered a melting point of 238 to 241 °C. The compound further returned an inhibition at 10 µM against COX-2 of 30%. This compound registered an inhibition at 100 µM at COX-1 of 50%.

As to `CS(=O)(=O)c1ccc(-c2cc3c(cc2Cc2cc(F)cc(F)c2)OCCO3)cc1` [Example 20, 1-(7-((3,5-Difluorophenyl)methyl)(2H, 3H-benzo(3,4-e)1,4-dioxin-6-yl))-4-(methylsulfonyl)benzene], the melting point lay within 160 to 162 °C. The compound further yielded an inhibition at 10 µM against COX-2 of 40%. In addition, the inhibition at 100 µM against COX-1 was found to be 70%.
